Results on five compounds are retold here after US20250276994A1, “CAP ANALOG FOR THE 5'-END OF EUKARYOTIC MESSENGER RNAS” (WESTFÄLISCHE WILHELMS-UNIVERSITÄT, priority 2021, published 2025).

The subject of one data set is HeLa cells. In words: Translation and irradiation in HeLa cells of capped GLuc-mRNA (luminescence). In kind it is cell-based. As to the method: HeLa cells were transferred to a 96 well plate 20 h prior transfection. 30.000 cells/well were cultivated in growth Media (MEM, 10% FCS, 1% glutamine, 1% Penicillin, 1% Streptomycine, […] non-essential aminoacids). For transfection the growth media was exchanged for MEM-media with 0.6 μL Metafectene® Pro (0.3 μL) and 100 ng mRNA was added per well. 6 h after transfection of the cells the media was exchange by MEM-media, followed by irradiation and another MEM-media exchange. After 24 h post transfection the supernatant in the wells was used for further luminescence measurements. Values of the ApppG capped mRNA represent cap independent translation and were therefore subtracted from the other values.
In cell translation and irradiation in cell culture of mammalian HeLa cells was performed as described above. GLuc mRNA capped with the photocleavable 5′-cap analog of formula (12) (“DMNB”) was used and the commercial non-modified cap analog denoted “m^7GpppG” (Jena Bioscience) was used as a control. HeLa cells were either transfected with the DMNB-m^7GpCH2ppG capped mRNA (irradiated and non-irradiated before transfection) or with the natural capped mRNA (irradiated and non-irradiated before transfection). Irradiation of the mRNA containing the natural cap was performed (5 V, 600 mA) with 365 nm for 30 seconds to evaluate the resulting influence on translational efficiency. DMNB-m^7GpCH2ppG capped mRNA was irradiated in the same way or with 405 nm for 60 seconds. The ApppG capped mRNA, which is not recognized by the translation initiation factor served as negative control, which is substracted from the other samples as it represents background activity. The values were normalized to the non-irradiated m^7GpppG capped sample (100%). The experiment was performed in triplicates.
The luminescence measurement of cell culture media after translation in cells transfected with modified and non-modified GLuc mRNA was repeated using irradiation with 365 nm/405 nm for different periods of time. HeLa cells were either transfected with the GLuc mRNA capped with the photocleavable 5′-cap analog of formula (12) denoted “DMNB-m^7GpCH2ppG capped mRNA” or with the natural m^7GpppG capped mRNA. Cells transfected with the natural capped mRNA were irradiated (5 V, 600 mA) with 365 nm/405 nm for 30 s or 60 s to evaluate the resulting influence on translational efficiency. Cells transfected with DMNB-m^7GpCH2ppG capped mRNA were irradiated in the same way. The ApppG capped mRNA, which is not recognized by the translation initiation factor served as negative control, which is substracted from the other samples as it represents background activity. The values were normalized to the non-irradiated cells with m^7GpppG capped mRNA (100%). The experiment was performed in triplicates.
Luminescence measurement of cell culture media after translation of transfected modified and non-modified GLuc mRNA in cells. HeLa cells were either transfected with the NPOM-m^7GpCH2ppG capped mRNA or with the natural m^7GpppG capped mRNA. Cells transfected with the natural capped mRNA were irradiated (5 V, 600 mA) with 365 nm/405 nm for different periods of time to evaluate the resulting influence on translational efficiency. Cells transfected with NPOM-m^7GpCH2ppG capped mRNA were irradiated in the same way. The ApppG capped mRNA, which is not recognized by the translation initiation factor served as negative control, which is substracted from the other samples as it represents background activity. […]

Another data set concerns Reticulocyte Lysate. In words: In vitro translation of capped FLuc-mRNA and luminescence measurement. It counts as biochemical. The procedure: In vitro translation was performed using a eukaryotic cell free protein expression kit from Reticulocyte Lysate (Invitrogen). Experiments were performed in 12.5 μL total volume containing 20 ng of the corresponding FLuc-mRNAs, 50 μM L-methionine and 150 mM potassium acetate. Samples were mixed with 8.5 μL of the reticulocyte lysate and incubated for 90 min at 30° C. Afterwards, 2 μL of the respective translation mix were used in subsequent luminescence measurement. The translation efficiency of the reporter mRNAs was assessed in a luciferase assay using Beetle-juice Luciferase Assay Firefly (pjk). Luciferase activity was determined by adding 50 μL freshly prepared substrate solution to the translation mixture. Luminescence was monitored using a Tecan Infinite® m1000pro microplate reader with an acquisition time of 3 s (duration of signal acquisition).
The photocleavable 5′-cap analog of formula (7) was used for in vitro transcription to make FLuc mRNA as described above. This was used for in vitro translation and Luminescence measurement as described above. The commercial non-modified cap analog denoted “m^7GpppG” (Jena Bioscience) was used as positive control. Samples were irradiated for 30 seconds. The ApppG capped mRNA, which is not recognized by the translation initiation factor served as negative control, which is substracted from the other samples as it represents background activity. The experiment was performed in quadruplicates. The FLuc-mRNA capped with the photocleavable 5′-cap analog of formula (7) is denoted “ONB”.
The in vitro translation assay and luminescence measurement was performed as described above using the photocleavable 5′-cap analog of formula (12). The capped mRNA was denoted “DMNB-m^7GpCH2ppG capped FLuc-mRNA”. Samples were irradiated for 30 seconds (365 nm) or 60 seconds (405 nm). The commercial non-modified cap analog denoted “m^7GpppG” (Jena Bioscience) was used as positive control and all other samples were normalized to it. The ApppG capped mRNA, which is not recognized by the translation initiation factor served as negative control, which is substracted from the other samples as it represents background activity. The experiment was performed in triplicates, except *DMNB-m7GpCH2ppG (365 nm) which was a single determination.
The in vitro translation assay in reticulocyte lysate and luminescence measurement was performed as described above using m^7GpppG capped FLuc-mRNA caged with the photocleavable 5′-cap analog of formulas (22) and (25) (denoted “DMNB m^7GpppG” and “NPOM m^7GpppG”). Samples were irradiated for 30 seconds at 365 nm. The ApppG capped mRNA, which is not recognized by the translation initiation factor served as negative control, which was substracted from the other samples as it represents background activity. The values were normalized to the non-irradiated sample with m^7GpppG capped mRNA (100%). The experiment was performed in triplicates.
The in vitro translation assay in reticulocyte lysate and luminescence measurement was performed as described above using m^7GpppG capped FLuc-mRNA with modified nucleotides m^5C and N^1methyl-pseudouridine caged with the photocleavable 5′-cap analog of formulas (22) and (25) (denoted “DMNB m^7GpppG mod” and “NPOM m^7GpppG mod”). Samples were irradiated for 30 seconds at 365 nm. The ApppG capped mRNA, which is not recognized by the translation initiation factor served as negative control, which was substracted from the other samples as it represents background activity. The values were normalized to the non-irradiated sample with m^7GpppG capped mRNA (100%). The experiment was performed in triplicates.

Data set [1] can be described thus: Irradiation of caged nucleosides, conversion estimated by HPLC. It counts as physicochemical. The note with it: 450 nm; H2O:ACN (1:1). The procedure: Conversions from caged compounds to uncaged compounds were estimated by integrating the peaks of a UV-spectrum that resulted from the HPLC analysis (Agilent infinity 1260).
When irradiating isolated N2-modified compounds, a final volume of 10 μL in double distilled water was irradiated using a LED (λmax=365 nm/405 nm/420 nm) and then analyzed by RP-HPLC.
A 500 μM solution of the compound 15, nitropiperonylmethyl fused via a carbamate moiety to guanosine (denoted “NPOM guanosine” or “caged guanosine”), in water/acetone/acetonitrile was irradiated in a 10 μL volume with either 405 nm for 20 s, 40 s or 60 s or with 365 nm for 5 s, 10 s or 20 s, respectively, using a LED power (input 3W and output 147 mW/cm^2). HPLC analysis was performed as described above.
Samples of the adenosine fused via a carbamate moiety to 7-(diethylamino)-4-(hydroxymethyl)-coumarin (DEACM) were irradiated with 450 nm. […] The peak at 21.1 min corresponds to the obtained compound and the peaks at 11.1 and 21.9 min correspond to the photo-cleavage products adenosine and DEACM-OH, respectively.

A further data set has as its target T1, T7 RNA polymerase (Escherichia phage T7, UniProt P00573).
T1 construct: purchased Thermo Scientific
In words: In vitro transcription of GLuc mRNA with cap analogs, gel analysis. It counts as biochemical. As to the method:
First, the DNA sequence coding for eGFP, Firefly luciferase (FLuc) or Gaussia luciferase (GLuc) mRNAs were amplified from pmRNA-vectors containing the respective sequence. After purification (NucleoSpin Gel and PCR Clean-up, Macherey-Nagel), the resulting linear dsDNA was used as template (200 ng) for in vitro T7 transcription performed in transcription buffer (40 mM Tris/HCl, 25 mM NaCl, 8 mM MgCl2, 2 mM spermidine(HCl)3) by adding either a A/C/UTP (0.5 mM) mix or a mix with modified nucleotides (A/m^5C/N^1-methylpseudo-UTP) (0.5 mM), GTP (0.25 mM), GpppG, m7GpppG, ApppG, DMNB or NPOM cap analog (1 mM), T7 RNA polymerase (50 U) (Thermo Scientific) and pyrophosphatase (0.1 U) (Thermo Scientific) for 4 h at 37° C. Remaining DNA template was digested in presence of 2 U DNase I for 1 h at 37° C. and then mRNAs were purified using the RNA Clean & Concentrator™-5 Kit (Zymo Research). To digest non-capped RNAs, 10 U of the RNA 5′-polyphosphatase (Epicentre) as well as the supplied reaction buffer were added to purified mRNAs. After an incubation period of 30 min at 37° C., 0.5 U of the 5′-3′ exoribonuclease XRN1 (NEB) and MgCl2 (5 mM) were added. The reaction mixture was incubated for 60 min at 37° C. Subsequently, capped mRNAs were purified using the RNA Clean & Concentrator™-5 Kit (Zymo Research).
The photocleavable 5′-cap analogs of formulas (12) and (18) were used for in vitro transcription of GLuc mRNA as described above and analysed via agarose gel electrophoresis.
“M” denotes Riboruler low range RNA ladder.

T1 sequence (P00573 whole entry): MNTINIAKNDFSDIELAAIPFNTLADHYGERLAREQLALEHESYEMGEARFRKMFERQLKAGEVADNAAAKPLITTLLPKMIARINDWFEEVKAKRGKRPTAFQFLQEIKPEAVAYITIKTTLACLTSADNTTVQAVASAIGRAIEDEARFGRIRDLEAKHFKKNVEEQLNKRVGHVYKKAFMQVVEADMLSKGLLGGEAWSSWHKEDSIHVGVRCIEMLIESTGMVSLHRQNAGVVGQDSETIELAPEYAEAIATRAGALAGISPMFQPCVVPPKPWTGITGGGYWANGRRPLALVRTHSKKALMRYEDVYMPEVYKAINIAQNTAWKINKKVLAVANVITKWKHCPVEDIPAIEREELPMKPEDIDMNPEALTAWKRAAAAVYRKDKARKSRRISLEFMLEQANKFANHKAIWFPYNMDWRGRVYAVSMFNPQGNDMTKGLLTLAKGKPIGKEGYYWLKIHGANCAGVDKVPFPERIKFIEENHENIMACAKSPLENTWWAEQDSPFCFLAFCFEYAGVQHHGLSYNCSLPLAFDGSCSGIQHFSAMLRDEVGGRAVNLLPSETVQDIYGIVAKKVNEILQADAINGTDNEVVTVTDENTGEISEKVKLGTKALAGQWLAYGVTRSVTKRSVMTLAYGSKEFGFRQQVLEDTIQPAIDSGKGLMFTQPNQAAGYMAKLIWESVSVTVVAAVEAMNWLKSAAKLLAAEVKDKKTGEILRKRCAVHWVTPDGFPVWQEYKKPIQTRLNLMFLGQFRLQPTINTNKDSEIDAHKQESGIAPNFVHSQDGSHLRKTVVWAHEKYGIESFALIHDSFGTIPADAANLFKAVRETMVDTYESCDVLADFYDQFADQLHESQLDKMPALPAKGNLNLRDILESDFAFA

Take `C[n+]1cn([C@@H]2O[C@H](COP(=O)(O)CP(=O)(O)OP(=O)(O)OC[C@H]3O[C@@H](n4cnc5c(=O)[nH]c(N)nc54)C(O)C3O)C(O)C2O)c2nc(NC(=O)OCc3ccccc3[N+](=O)[O-])[nH]c(=O)c21` (stereo partly drawn) [compound 7, P1-(N^2-(2-Nitrobenzyl)oxycarbonyl-7-methylguanosin-5′-yl)-P3-guanosin-5′-yl 1,2-methylenetriphosphate]: in the data set on HeLa cells (differently capped GLuc mRNAs, normalized to m^7GpppG, single determination), the “translation efficiency (luminescence of cell supernatant)” value was “impacts the translation efficiency in an inhibiting way”. Further, the “in vitro translation (luminescence) after irradiation” value in the data set on Reticulocyte Lysate (capped FLuc-mRNA, irradiated for 30 seconds) is “partially restored”. Moreover, in the data set with Reticulocyte Lysate (capped FLuc-mRNA, non-irradiated, normalized to m^7GpppG capped mRNA), the “in vitro translation (luminescence), non-irradiated” value is on record as “successfully inhibited to a high degree”.

In the case of `CCN(CC)c1ccc2c(COC(=O)Nc3ncnc4c3ncn4[C@@H]3O[C@H](CO)[C@H](O)C3O)cc(=O)oc2c1` (stereo partly drawn), the “photo-cleavage upon irradiation (HPLC)” value in data set [1] is listed as “photocleavable”.

For the compound `CC(OC(=O)Nc1nc2c(c(=O)[nH]1)[n+](C)cn2[C@@H]1O[C@H](COP(=O)(O)CP(=O)(O)OP(=O)(O)OC[C@H]2O[C@@H](n3cnc4c(=O)[nH]c(N)nc43)C(O)C2O)C(O)C1O)c1cc2c(cc1[N+](=O)[O-])OCO2` (stereo partly drawn) [compound 18, P1-(N^2-(1-(6-nitrobenzo[d][1,3]dioxol-5-yl)ethyl)oxycarbonyl-7-methylguanosin-5′-yl)-P3-guanosin-5′-yl 1,2-methylenetriphosphate], the “translation in cells (luminescence) after irradiation of the cells” value with HeLa cells (GLuc mRNA, transfected cells irradiated 15 s, 25 s or 30 s, increase at 365 nm) is reported as “significant increase of translation”. For the same compound, the “incorporation of cap analog into RNA” value at T7 RNA polymerase is reported as “incorporated into the RNA”.

With `CC(OC(=O)Nc1nc2c(c(=O)[nH]1)[n+](C)cn2[C@@H]1O[C@H](COP(=O)(O)OP(=O)(O)OP(=O)(O)OC[C@H]2O[C@@H](n3cnc4c(=O)[nH]c(N)nc43)C(O)C2O)C(O)C1O)c1cc2c(cc1[N+](=O)[O-])OCO2` (stereo partly drawn) [compound 25, P1-(N^2-(1-(6-nitrobenzo[d][1,3]dioxol-5-yl)ethyl)oxycarbonyl-7-methylguanosin-5′-yl)-P3-guanosin-5′-yl triphosphate], the “in vitro translation (luminescence) after irradiation” value with Reticulocyte Lysate (capped FLuc-mRNA with modified nucleotides m^5C and N^1methyl-pseudouridine, 30 seconds at 365 nm) is recorded as “marked increase of translation”; with Reticulocyte Lysate (capped FLuc-mRNA, regular nucleotides, 30 seconds at 365 nm) it was “marked increase of translation”.

With `Cn1c[n+]([C@@H]2O[C@H](COP(=O)(O)OP(=O)([O-])OP(=O)(O)OC[C@H]3O[C@@H](n4cnc5c(=O)[nH]c(N)nc54)[C@H](O)[C@@H]3O)[C@@H](O)[C@H]2O)c2nc(N)[nH]c(=O)c21` [m^7GpppG, reference compound], at T7 RNA polymerase, the “incorporation of cap analog into RNA” value is listed as “incorporated into the RNA”.
